These compounds were tested on Mus musculus (assay: Analgesic activity against acetic acid-induced Kunming writhing mouse model assessed as inhibition of writhing at 10 mg/kg, sc pretreated with compound for 15 mins followed by acetic acid addition and measured after 15 mins relative to control). Settings: 0.5 h, time 30 min.
Assay type: functional
Compound `CCN1C[C@]2(OC(=O)c3ccccc3NS(=O)(=O)c3ccc(F)c(F)c3)CC[C@H](OC)[C@]34C1[C@H](C[C@H]23)[C@@]1(O)C[C@H](OC)[C@H]2C[C@@H]4[C@]1(O)[C@H]2OC` has an inhibition in vivo at 10 mg/kg of 28.3%. Compound `CCN1C[C@]2(OC(=O)c3ccccc3NS(=O)(=O)c3ccc(OC)c(OC)c3)CC[C@H](OC)[C@]34C1[C@H](C[C@H]23)[C@@]1(O)C[C@H](OC)[C@H]2C[C@@H]4[C@]1(O)[C@H]2OC` has an inhibition in vivo at 10 mg/kg of 13.7%. Compound `CCN1C[C@]2(OC(=O)c3ccccc3NC(=O)C3CCCO3)CC[C@H](OC)[C@]34C1[C@H](C[C@H]23)[C@@]1(O)C[C@H](OC)[C@H]2C[C@@H]4[C@]1(O)[C@H]2OC` (stereo not given in full) has an inhibition in vivo at 10 mg/kg of 21.8%. `CCN1C[C@]2(OC(=O)c3ccccc3NC(=O)c3ccc(OC(F)(F)F)cc3)CC[C@H](OC)[C@]34C1[C@H](C[C@H]23)[C@@]1(O)C[C@H](OC)[C@H]2C[C@@H]4[C@]1(O)[C@H]2OC` was tested, and the inhibition in vivo at 10 mg/kg was 10%. `CCN1C[C@]2(OC(=O)c3ccccc3NS(=O)(=O)c3cccc4ccccc34)CC[C@H](OC)[C@]34C1[C@H](C[C@H]23)[C@@]1(O)C[C@H](OC)[C@H]2C[C@@H]4[C@]1(O)[C@H]2OC` gave an inhibition in vivo at 10 mg/kg of 49.3%. `CCN1C[C@]2(OC(=O)c3ccccc3NS(=O)(=O)c3ccc(OC)cc3)CC[C@H](OC)[C@]34C1[C@H](C[C@H]23)[C@@]1(O)C[C@H](OC)[C@H]2C[C@@H]4[C@]1(O)[C@H]2OC` gave an inhibition in vivo at 10 mg/kg of 16.8%. `CCN1C[C@]2(OC(=O)c3ccccc3NS(=O)(=O)c3ccc(N(C)C)cc3)CC[C@H](OC)[C@]34C1[C@H](C[C@H]23)[C@@]1(O)C[C@H](OC)[C@H]2C[C@@H]4[C@]1(O)[C@H]2OC` gave an inhibition in vivo at 10 mg/kg of 23%. `CCN1C[C@]2(OC(=O)c3ccccc3NS(=O)(=O)c3cccs3)CC[C@H](OC)[C@]34C1[C@H](C[C@H]23)[C@@]1(O)C[C@H](OC)[C@H]2C[C@@H]4[C@]1(O)[C@H]2OC` gave an inhibition in vivo at 10 mg/kg of 1%. Compound `CCN1C[C@]2(OC(=O)c3ccccc3NS(=O)(=O)c3c(C)cc(C)cc3C)CC[C@H](OC)[C@]34C1[C@H](C[C@H]23)[C@@]1(O)C[C@H](OC)[C@H]2C[C@@H]4[C@]1(O)[C@H]2OC` has an inhibition in vivo at 10 mg/kg of 52.1%. Work on `CCN1C[C@]2(OC(=O)c3ccccc3NC(=O)c3cccc(F)c3)CC[C@H](OC)[C@]34C1[C@H](C[C@H]23)[C@@]1(O)C[C@H](OC)[C@H]2C[C@@H]4[C@]1(O)[C@H]2OC` yielded an inhibition in vivo at 10 mg/kg of 27.5%. For `CCN1C[C@]2(OC(=O)c3ccccc3NS(=O)(=O)c3ccc(F)cc3F)CC[C@H](OC)[C@]34C1[C@H](C[C@H]23)[C@@]1(O)C[C@H](OC)[C@H]2C[C@@H]4[C@]1(O)[C@H]2OC`, the inhibition in vivo at 10 mg/kg was 27.2%. For `CCN1C[C@]2(OC(=O)c3ccccc3NC(=O)c3ccc(S(C)(=O)=O)cc3)CC[C@H](OC)[C@]34C1[C@H](C[C@H]23)[C@@]1(O)C[C@H](OC)[C@H]2C[C@@H]4[C@]1(O)[C@H]2OC`, the inhibition in vivo at 10 mg/kg was 8.4%. `CCN1C[C@]2(OC(=O)c3ccccc3NC(=O)c3ccc(Cl)c(Cl)c3)CC[C@H](OC)[C@]34C1[C@H](C[C@H]23)[C@@]1(O)C[C@H](OC)[C@H]2C[C@@H]4[C@]1(O)[C@H]2OC` was tested, and the inhibition in vivo at 10 mg/kg was 10.4%. Work on `CCN1C[C@]2(OC(=O)c3ccccc3NC(=O)C3CCCC3)CC[C@H](OC)[C@]34C1[C@H](C[C@H]23)[C@@]1(O)C[C@H](OC)[C@H]2C[C@@H]4[C@]1(O)[C@H]2OC` yielded an inhibition in vivo at 10 mg/kg of 56.9%. For `CCN1C[C@]2(OC(=O)c3ccccc3NC(=O)c3ccccc3N(C)C)CC[C@H](OC)[C@]34C1[C@H](C[C@H]23)[C@@]1(O)C[C@H](OC)[C@H]2C[C@@H]4[C@]1(O)[C@H]2OC`, the inhibition in vivo at 10 mg/kg was 34.2%. `CCN1C[C@]2(OC(=O)c3ccccc3NC(=O)c3ccc(C)cc3C)CC[C@H](OC)[C@]34C1[C@H](C[C@H]23)[C@@]1(O)C[C@H](OC)[C@H]2C[C@@H]4[C@]1(O)[C@H]2OC` showed an inhibition in vivo at 10 mg/kg of 0%. Compound `CCN1C[C@]2(OC(=O)c3ccccc3NS(=O)(=O)c3ccc(Br)cc3)CC[C@H](OC)[C@]34C1[C@H](C[C@H]23)[C@@]1(O)C[C@H](OC)[C@H]2C[C@@H]4[C@]1(O)[C@H]2OC` has an inhibition in vivo at 10 mg/kg of 11.4%. For `CCN1C[C@]2(OC(=O)c3ccccc3NS(C)(=O)=O)CC[C@H](OC)[C@]34C1[C@H](C[C@H]23)[C@@]1(O)C[C@H](OC)[C@H]2C[C@@H]4[C@]1(O)[C@H]2OC`, the inhibition in vivo at 10 mg/kg was 22.8%. `CCN1C[C@]2(OC(=O)c3ccccc3NC(=O)C3CCCCC3)CC[C@H](OC)[C@]34C1[C@H](C[C@H]23)[C@@]1(O)C[C@H](OC)[C@H]2C[C@@H]4[C@]1(O)[C@H]2OC` showed an inhibition in vivo at 10 mg/kg of 34.5%. Compound `CCN1C[C@]2(OC(=O)c3ccccc3NS(=O)(=O)c3ccc(C)cc3)CC[C@H](OC)[C@]34C1[C@H](C[C@H]23)[C@@]1(O)C[C@H](OC)[C@H]2C[C@@H]4[C@]1(O)[C@H]2OC` has an inhibition in vivo at 10 mg/kg of 27.7%. With `CCN1C[C@]2(OC(=O)c3ccccc3NS(=O)(=O)c3cc(Cl)ccc3OC)CC[C@H](OC)[C@]34C1[C@H](C[C@H]23)[C@@]1(O)C[C@H](OC)[C@H]2C[C@@H]4[C@]1(O)[C@H]2OC` the inhibition in vivo at 10 mg/kg was 43.2%. `CCCCc1ccc(C(=O)Nc2ccccc2C(=O)O[C@@]23CC[C@H](OC)[C@]45C([C@H](C[C@H]24)[C@@]2(O)C[C@H](OC)[C@H]4C[C@@H]5[C@]2(O)[C@H]4OC)N(CC)C3)cc1` showed an inhibition in vivo at 10 mg/kg of 28.2%. Compound `CCN1C[C@]2(OC(=O)c3ccccc3NS(=O)(=O)c3ccc4ccccc4c3)CC[C@H](OC)[C@]34C1[C@H](C[C@H]23)[C@@]1(O)C[C@H](OC)[C@H]2C[C@@H]4[C@]1(O)[C@H]2OC` has an inhibition in vivo at 10 mg/kg of 28.4%. `CCN1C[C@]2(OC(=O)c3ccccc3NS(=O)(=O)c3cccc4c(N(C)C)cccc34)CC[C@H](OC)[C@]34C1[C@H](C[C@H]23)[C@@]1(O)C[C@H](OC)[C@H]2C[C@@H]4[C@]1(O)[C@H]2OC` gave an inhibition in vivo at 10 mg/kg of 42.5%. Compound `CCN1C[C@]2(OC(=O)c3ccccc3NS(=O)(=O)c3ccc(C(F)(F)F)cc3)CC[C@H](OC)[C@]34C1[C@H](C[C@H]23)[C@@]1(O)C[C@H](OC)[C@H]2C[C@@H]4[C@]1(O)[C@H]2OC` has an inhibition in vivo at 10 mg/kg of 19.4%. For `CCN1C[C@]2(OC(=O)c3ccccc3NS(=O)(=O)c3cccc(F)c3)CC[C@H](OC)[C@]34C1[C@H](C[C@H]23)[C@@]1(O)C[C@H](OC)[C@H]2C[C@@H]4[C@]1(O)[C@H]2OC`, the inhibition in vivo at 10 mg/kg was 50.2%. `CCN1C[C@]2(OC(=O)c3ccccc3NS(=O)(=O)c3ccccc3Br)CC[C@H](OC)[C@]34C1[C@H](C[C@H]23)[C@@]1(O)C[C@H](OC)[C@H]2C[C@@H]4[C@]1(O)[C@H]2OC` showed an inhibition in vivo at 10 mg/kg of 24.7%. `CCN1C[C@]2(OC(=O)c3ccccc3NC(=O)c3cccc(C#N)c3)CC[C@H](OC)[C@]34C1[C@H](C[C@H]23)[C@@]1(O)C[C@H](OC)[C@H]2C[C@@H]4[C@]1(O)[C@H]2OC` showed an inhibition in vivo at 10 mg/kg of 10.7%. Compound `CCN1C[C@]2(OC(=O)c3ccccc3NS(=O)(=O)c3cccc(C#N)c3)CC[C@H](OC)[C@]34C1[C@H](C[C@H]23)[C@@]1(O)C[C@H](OC)[C@H]2C[C@@H]4[C@]1(O)[C@H]2OC` has an inhibition in vivo at 10 mg/kg of 47.4%. In the case of `CCN1C[C@]2(OC(=O)c3ccccc3NC(=O)c3ccc(C#N)cc3)CC[C@H](OC)[C@]34C1[C@H](C[C@H]23)[C@@]1(O)C[C@H](OC)[C@H]2C[C@@H]4[C@]1(O)[C@H]2OC`, the inhibition in vivo at 10 mg/kg is reported as 31.5%. For `CCN1C[C@]2(OC(=O)c3ccccc3NS(=O)(=O)c3cccc(C)c3)CC[C@H](OC)[C@]34C1[C@H](C[C@H]23)[C@@]1(O)C[C@H](OC)[C@H]2C[C@@H]4[C@]1(O)[C@H]2OC`, the inhibition in vivo at 10 mg/kg was 52.1%. Compound `CCN1C[C@]2(OC(=O)c3ccccc3NC(=O)c3ccc(C(=O)OC)cc3)CC[C@H](OC)[C@]34C1[C@H](C[C@H]23)[C@@]1(O)C[C@H](OC)[C@H]2C[C@@H]4[C@]1(O)[C@H]2OC` has an inhibition in vivo at 10 mg/kg of 36.4%. `CCN1C[C@]2(OC(=O)c3ccccc3NC(=O)c3ccccc3)CC[C@H](OC)[C@]34C1[C@H](C[C@H]23)[C@@]1(O)C[C@H](OC)[C@H]2C[C@@H]4[C@]1(O)[C@H]2OC` gave an inhibition in vivo at 10 mg/kg of 0%. In the case of `CCN1C[C@]2(OC(=O)c3ccccc3NC(=O)c3cccc(Cl)c3)CC[C@H](OC)[C@]34C1[C@H](C[C@H]23)[C@@]1(O)C[C@H](OC)[C@H]2C[C@@H]4[C@]1(O)[C@H]2OC`, the inhibition in vivo at 10 mg/kg is reported as 17.5%. Work on `CCN1C[C@]2(OC(=O)c3ccccc3NC(=O)c3cccc(C)c3)CC[C@H](OC)[C@]34C1[C@H](C[C@H]23)[C@@]1(O)C[C@H](OC)[C@H]2C[C@@H]4[C@]1(O)[C@H]2OC` yielded an inhibition in vivo at 10 mg/kg of 36.9%. `CCN1C[C@]2(OC(=O)c3ccccc3NS(=O)(=O)c3cc(F)ccc3F)CC[C@H](OC)[C@]34C1[C@H](C[C@H]23)[C@@]1(O)C[C@H](OC)[C@H]2C[C@@H]4[C@]1(O)[C@H]2OC` was tested, and the inhibition in vivo at 10 mg/kg was 45.1%. Work on `CCN1C[C@]2(OC(=O)c3ccccc3NS(=O)(=O)Cc3ccc([N+](=O)[O-])cc3)CC[C@H](OC)[C@]34C1[C@H](C[C@H]23)[C@@]1(O)C[C@H](OC)[C@H]2C[C@@H]4[C@]1(O)[C@H]2OC` yielded an inhibition in vivo at 10 mg/kg of 42.4%. Work on `CCc1ccc(C(=O)Nc2ccccc2C(=O)O[C@@]23CC[C@H](OC)[C@]45C([C@H](C[C@H]24)[C@@]2(O)C[C@H](OC)[C@H]4C[C@@H]5[C@]2(O)[C@H]4OC)N(CC)C3)cc1` yielded an inhibition in vivo at 10 mg/kg of 26.7%. Compound `CCN1C[C@]2(OC(=O)c3ccccc3NS(=O)(=O)c3cccc(Cl)c3)CC[C@H](OC)[C@]34C1[C@H](C[C@H]23)[C@@]1(O)C[C@H](OC)[C@H]2C[C@@H]4[C@]1(O)[C@H]2OC` has an inhibition in vivo at 10 mg/kg of 33.1%. `CCN1C[C@]2(OC(=O)c3ccccc3NS(=O)(=O)CCCCl)CC[C@H](OC)[C@]34C1[C@H](C[C@H]23)[C@@]1(O)C[C@H](OC)[C@H]2C[C@@H]4[C@]1(O)[C@H]2OC` was tested, and the inhibition in vivo at 10 mg/kg was 32.1%.
